{"source": "patent US10336732B2", "about": "“1-heterocyclyl isochromanyl compounds and analogs for treating CNS disorders” (Sunovion Pharmaceuticals Inc., priority 2015, dated 2019)"}
{"molecular_target": "T1, 5-HT1A (Homo sapiens, UniProt P08908)", "T1 construct": "expressed in transfected cells; host or cells: HEK-293 cells", "T1 sequence (P08908 1-422)": "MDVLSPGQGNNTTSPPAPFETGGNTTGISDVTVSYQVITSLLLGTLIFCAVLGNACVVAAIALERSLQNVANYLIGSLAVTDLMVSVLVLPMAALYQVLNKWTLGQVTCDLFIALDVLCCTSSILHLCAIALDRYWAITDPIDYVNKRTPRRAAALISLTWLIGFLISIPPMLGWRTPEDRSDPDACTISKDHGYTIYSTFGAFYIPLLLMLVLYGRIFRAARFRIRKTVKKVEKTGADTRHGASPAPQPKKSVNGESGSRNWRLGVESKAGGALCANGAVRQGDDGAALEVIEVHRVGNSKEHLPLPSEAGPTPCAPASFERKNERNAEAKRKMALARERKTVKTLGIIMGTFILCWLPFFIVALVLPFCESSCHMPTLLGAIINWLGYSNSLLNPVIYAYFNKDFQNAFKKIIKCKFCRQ", "assay": "In vitro radioligand binding assay, 5-HT1A, [3H]8-OH-DPAT", "parameters": "concentration or dose not given beside the values", "conditions": "human recombinant (HEK-293 cells)", "protocol": "Certain compounds were tested by in vitro binding assays using standard procedures. […] These receptors and assays are well known to those skilled in the art, as exemplified by the following: Abramovitz, M. et al. (2000), Biochem. Biophys. Acta., 1483: 285-293 (EP4, IP (PGI2)); Aharony, D. et al. (1993), Mol. Pharmacol., 44: 356-363 (NK2); Ardati, A. et al. (1997), Mol. Pharmacol., 51: 816-824 (NOP (ORL1)); Bignon, E. et al. (1999), J. Pharmacol. Exp. Ther. 289: 742-751 (CCK1 (CCKA)); Bloomquist, B. T. et al. (1998), Biochem. Biophys. Res. Commun., 243: 474-479 (GAL2); Brockhaus, M. et al. (1990), Proc. Natl. Acad. Sci. U.S.A., 87: 3127-3131 (TNF-α); Brown, G. B. (1986), J. Neurosci., 6: 2064-2070 (Na+ channel (site 2)); Buchan, K. W. et al. (1994), Brit. J. Pharmacol., 112: 1251-1257 (ETA); Cesura, A. M. et al. (1990), Mol. Pharmacol., 37: 358-366 (MAO-A); Choi, D. S. et al. (1994), FEBS Lett., 352: 393-399 (5-HT2B); Clark, A. F. et al. (1996), Invest. Ophtalmol. Vis. Sci., 37: 805-813 (GR); Couvineau, A. et al. (1985), Biochem. J., 231: 139-143 (VPAC1 (VIP1)); Dorje, F. et al. (1991), J. Pharmacol. Exp. Ther., 256: 727-733 (M1, M2, M3, M4); Ferry, G. et al. (2001), Eur. J. Pharmacol., 417: 77-89 (PPARγ); Fuchs, S. et al. (2001), Mol. Med., 7: 115-124 (ETB); Fuhlendorff, J. et al. (1990), Proc. Natl. Acad. Sci. U.S.A., 87: 182-186 (Y2); Ganapathy M E. et al. (1999), J. Pharmacol. Exp. Ther., 289: 251-260 (sigma (non-selective)); Gopalakrishnan, M. et al. (1996), J. Pharmacol. Exp. Ther., 276: 289-297 (N neuronal α4β2); Greengrass, P. and Bremner, R. (1979), Eur. J. Pharmacol., 55: 323-326 (α1 (non-selective)); Grandy, D. K. et al. (1989), Proc. Natl. Acad. Sci. U.S.A., 86: 9762-9766 (D25); Guard, S. et al. (1993), Eur. J. Pharmacol., 240:177-184 (BB (non-selective)); Heuillet, E. et al. (1993), J. Neurochem., 60: 868-876 (NK1, P2X); Hope, A. G. et al. (1996), Brit. J. Pharmacol., 118: 1237-1245 (5-HT3); Hoyer, D. et al. (1985), Eur. J. Pharmacol., 118: 1-12 (5-HT1B); Hugues, M. et al. (1982), J. Biol. Chem., 257: 2762-2769 (5-HT2A, SKCa channel); Joseph, S. S. et al. (2004), Naun.-Sch. Arch. Pharm., 369: 525-532 (β2); Le, M. T. et al. (2005), Eur. J. Pharmacol., 513: 35-45 (AT1); Le Fur, G. et al. (1983), Life Sci., 33: 449-457) (BZD (peripheral); Lee, Y. M. et al. (1993), J. Biol. Chem., 268: 8164-8169 (CCK2 (CCKB)); Leurs, R. et al. (1994), Brit. J. Pharmacol., 112: 847-854 (H2); Levin, M. C. et al. (2002), J. Biol. Chem., 277: 30429-30435 (11); Lewin, A. H. et al. (1989), Mol. Pharmacol., 35: 189-194 (Cl− channel (GABA-gated)); Lukas, R. J. (1986), J. Neurochem., 46: 1936-1941 (N muscle-type); Luthin, D. R. et al. (1995), Mol. Pharmacol., 47: 307-313; (A2A); Mackenzie, R. G. et al. (1994), Eur. J. Pharmacol., 266: 79-85 (D3); Mulheron, J. G. et al. (1994), J. Biol. Chem., 269: 12954-12962 (5-HT1A); Meng, F. et al. (1993), Proc. Natl. Acad. Sci. U.S.A., 90: 9954-9958 (κ (KOP)); Monsma, F. J. et al. (1993), Mol. Pharmacol., 43: 320-327 (5-HT6); Neote, K. et al. (1993), Cell, 72: 415-425 (CCR1); Pacholczyk, T. et al. (1991), Nature, 350: 350-354 (sst (non-selective, norepinephrine transporter)); Peralta, E. G. et al. (1987), Embo. J., 6: 3923-3929 (M3); Pristupa, Z. B. et al. (1994), Mol. Pharmacol., 45: 125-135 (dopamine transporter); Pruneau, D. et al. (1998), Brit. J. Pharmacol., 125: 365-372 (B2); Rees, S. et al. (1994), FEBS Lett., 355: 242-246 (5-HT5a); Reynolds, I. J. et al. (1986), J. Pharmacol. Exp. Ther., 237: 731-738 (Ca2+ channel (L, verapamil site)); Rinaldi-Carmona, M. et al. (1996), J. Pharmacol. Exp. Ther., 278: 871-878 (CB1); Salvatore, C. A. et al. (1993), Proc. Natl. Acad. Sci. U.S.A., 90: 10365-10369 (A3); Sarau, H. M. et al. (1997), J. Pharmacol. Exp. Ther., 281: 1303-1311 (NK3); Schioth, H. B. et al. (1997), Neuropeptides, 31: 565-571 (MC4); Sharples, C. […]", "units": {"5HT1a percent inhibition of specific binding": "%"}}
{"compound": "Clc1ccc2c(c1)[C@H]([C@@H]1CCCN1)OCC2", "note": "[Compound I-29, (S)-2-((R)-7-chloroisochroman-1-yl)pyrrolidine]", "5HT1a percent inhibition of specific binding": 71}
{"compound": "Fc1cccc2c1[C@H]([C@@H]1CCCN1)OCC2", "note": "[Compound I-1, (S)-2-((R)-8-fluoroisochroman-1-yl)pyrrolidine]", "5HT1a percent inhibition of specific binding": 79}
{"compound": "Fc1cccc2c1[C@H]([C@@H]1CCN1)OCC2", "note": "[Compound I-83, (S)-2-((R)-8-fluoroisochroman-1-yl)azetidine]", "5HT1a percent inhibition of specific binding": 87}
{"compound": "Fc1ccc2c(c1)CCO[C@H]2[C@@H]1CCCN1", "note": "[Compound I-9, (S)-2-((R)-6-fluoroisochroman-1-yl)pyrrolidine]", "5HT1a percent inhibition of specific binding": 77}
{"compound": "Fc1ccc2c(c1)CCO[C@H]2[C@@H]1CCN1", "note": "[Compound I-90, (S)-2-((R)-6-fluoroisochroman-1-yl)azetidine]", "5HT1a percent inhibition of specific binding": 64}
{"compound": "Fc1ccc2c(c1)[C@H]([C@@H]1CCCN1)OCC2", "note": "[Compound I-5, (2S)-2-((R)-7-fluoroisochroman-1-yl)pyrrolidine]", "5HT1a percent inhibition of specific binding": 52}
